Data as given in EPA's CvTdb concentration-time database (doi:10.1093/toxsci/kfy020).

Assays:
Assay in all cases: concentration in plasma after dosing
[1] = test system: rat; settings: dosed: Propyzamide, 0.6 mg/kg, iv, male, Sprague-Dawley
[2] = test system: rat; settings: dosed: Propyzamide, 3.2120000000 mg/kg, oral, male, Sprague-Dawley
[3] = test system: rat; settings: dosed: Propyzamide, 0.6 mg/kg, iv, male, Sprague-Dawley; remark: listed apart in the source
[4] = test system: rat; settings: dosed: Propyzamide, 3.0000000000 mg/kg, oral, male, Sprague-Dawley
[5] = test system: rat; settings: dosed: Propyzamide, 3.0000000000 mg/kg, oral, male, Sprague-Dawley; remark: listed apart in the source
[6] = test system: rat; settings: dosed: Propyzamide, 3.2120000000 mg/kg, oral, male, Sprague-Dawley; remark: listed apart in the source
[7] = test system: rat; settings: male, Sprague-Dawley
[8] = test system: rat; settings: dosed: Propyzamide, 3.0000000000 mg/kg, oral, male, Sprague-Dawley; remark: listed apart in the source
[9] = test system: rat; settings: dosed: Pyrithiobac sodium, 1.037 mg/kg, oral, male, Sprague-Dawley
[10] = test system: rat; settings: dosed: Pyrithiobac sodium, 1.037 mg/kg, oral, male, Sprague-Dawley; remark: listed apart in the source

## C#CC(C)(C)NC(=O)c1cc(Cl)cc(Cl)c1 [Propyzamide]
[1]; 5 min
  concentration in plasma: 119 ng/mL
[1]; 10 min
  concentration in plasma: 122 ng/mL
[1]; 0.5 h
  concentration in plasma: 46.9 ng/mL
[1]; 1 h
  concentration in plasma: 23.8 ng/mL
[1]; 2 h
  concentration in plasma: 9.3 ng/mL
[1]; 4 h
  concentration in plasma: 1.2 ng/mL
[1]; 8 h
  concentration in plasma: 1.4 ng/mL
[2]; 0.25 h
  concentration in plasma: 228 ng/mL
[2]; 0.5 h
  concentration in plasma: 302 ng/mL
[2]; 1 h
  concentration in plasma: 262 ng/mL
[2]; 2 h
  concentration in plasma: 158 ng/mL
[2]; 4 h
  concentration in plasma: 234 ng/mL
[2]; 8 h
  concentration in plasma: 116 ng/mL
[2]; 24 h
  concentration in plasma: 3.06 ng/mL
[2]; 48 h
  concentration in plasma: 0.269 ng/mL
[2]; 72 h
  concentration in plasma: 0.0997 ng/mL
[3]; 5 min
  concentration in plasma: 156 ng/mL
[3]; 10 min
  concentration in plasma: 131 ng/mL
[3]; 0.5 h
  concentration in plasma: 65.8 ng/mL
[3]; 1 h
  concentration in plasma: 49.6 ng/mL
[3]; 2 h
  concentration in plasma: 19.8 ng/mL
[3]; 4 h
  concentration in plasma: 7.8 ng/mL
[3]; 12 h
  concentration in plasma: 0.6 ng/mL
[4]; 0.25 h
  concentration in plasma: 125 ng/mL
[4]; 0.5 h
  concentration in plasma: 118 ng/mL
[4]; 1 h
  concentration in plasma: 90.6 ng/mL
[4]; 2 h
  concentration in plasma: 50.7 ng/mL
[4]; 4 h
  concentration in plasma: 17.4 ng/mL
[4]; 8 h
  concentration in plasma: 24.1 ng/mL
[4]; 12 h
  concentration in plasma: 8.2 ng/mL
[5]; 0.25 h
  concentration in plasma: 62.6 ng/mL
[5]; 0.5 h
  concentration in plasma: 83.7 ng/mL
[5]; 1 h
  concentration in plasma: 61.9 ng/mL
[5]; 2 h
  concentration in plasma: 29.5 ng/mL
[5]; 4 h
  concentration in plasma: 49.3 ng/mL
[5]; 8 h
  concentration in plasma: 50.9 ng/mL
[5]; 12 h
  concentration in plasma: 6.1 ng/mL
[6]; 0.25 h
  concentration in plasma: 217 ng/mL
[6]; 0.5 h
  concentration in plasma: 244 ng/mL
[6]; 1 h
  concentration in plasma: 205 ng/mL
[6]; 2 h
  concentration in plasma: 98.2 ng/mL
[6]; 4 h
  concentration in plasma: 159 ng/mL
[6]; 8 h
  concentration in plasma: 148 ng/mL
[6]; 24 h
  concentration in plasma: 2.89 ng/mL
[6]; 48 h
  concentration in plasma: 0.376 ng/mL
[6]; 72 h
  concentration in plasma: 0.0426 ng/mL
[7]; 5 min, dosed: Propyzamide, 0.6 mg/kg, iv
  concentration in plasma: 165 ng/mL
[7]; 10 min, dosed: Propyzamide, 0.6 mg/kg, iv
  concentration in plasma: 117 ng/mL
[7]; 0.25 h, dosed: Propyzamide, 3.0000000000 mg/kg, oral
  concentration in plasma: 96.6 ng/mL
[7]; 0.25 h, dosed: Propyzamide, 3.2120000000 mg/kg, oral
  concentration in plasma: 252 ng/mL
[7]; 0.5 h, dosed: Propyzamide, 0.6 mg/kg, iv
  concentration in plasma: 47.6 ng/mL
[7]; 0.5 h, dosed: Propyzamide, 3.0000000000 mg/kg, oral
  concentration in plasma: 130 ng/mL
[7]; 0.5 h, dosed: Propyzamide, 3.2120000000 mg/kg, oral
  concentration in plasma: 359 ng/mL
[7]; 1 h, dosed: Propyzamide, 0.6 mg/kg, iv
  concentration in plasma: 15.1 ng/mL
[7]; 1 h, dosed: Propyzamide, 3.0000000000 mg/kg, oral
  concentration in plasma: 103 ng/mL
[7]; 1 h, dosed: Propyzamide, 3.2120000000 mg/kg, oral
  concentration in plasma: 323 ng/mL
[7]; 2 h, dosed: Propyzamide, 3.0000000000 mg/kg, oral
  concentration in plasma: 58.4 ng/mL
[7]; 2 h, dosed: Propyzamide, 3.2120000000 mg/kg, oral
  concentration in plasma: 153 ng/mL
[7]; 4 h, dosed: Propyzamide, 0.6 mg/kg, iv
  concentration in plasma: 3.1 ng/mL
[7]; 4 h, dosed: Propyzamide, 3.0000000000 mg/kg, oral
  concentration in plasma: 39.7 ng/mL
[7]; 4 h, dosed: Propyzamide, 3.2120000000 mg/kg, oral
  concentration in plasma: 174 ng/mL
[7]; 8 h, dosed: Propyzamide, 3.0000000000 mg/kg, oral
  concentration in plasma: 49.7 ng/mL
[7]; 8 h, dosed: Propyzamide, 3.2120000000 mg/kg, oral
  concentration in plasma: 83.5 ng/mL
[7]; 12 h, dosed: Propyzamide, 3.0000000000 mg/kg, oral
  concentration in plasma: 16.8 ng/mL
[7]; 24 h, dosed: Propyzamide, 3.0000000000 mg/kg, oral
  concentration in plasma: 1.2 ng/mL
[7]; 24 h, dosed: Propyzamide, 3.2120000000 mg/kg, oral
  concentration in plasma: 2.23 ng/mL
[7]; 48 h, dosed: Propyzamide, 3.2120000000 mg/kg, oral
  concentration in plasma: 0.327 ng/mL
[7]; 72 h, dosed: Propyzamide, 3.2120000000 mg/kg, oral
  concentration in plasma: 0.0846 ng/mL
[8]; 0.25 h
  concentration in plasma: 43.1 ng/mL
[8]; 0.5 h
  concentration in plasma: 104 ng/mL
[8]; 1 h
  concentration in plasma: 75.4 ng/mL
[8]; 2 h
  concentration in plasma: 46.3 ng/mL
[8]; 4 h
  concentration in plasma: 54 ng/mL
[8]; 8 h
  concentration in plasma: 44.1 ng/mL
[8]; 12 h
  concentration in plasma: 8.2 ng/mL
[8]; 24 h
  concentration in plasma: 1.5 ng/mL

## COc1cc(OC)nc(Sc2cccc(Cl)c2C(=O)[O-])n1.[Na+] [Pyrithiobac sodium]
[9]; 0.25 h
  concentration in plasma: 1380 ng/mL
[9]; 0.5 h
  concentration in plasma: 1560 ng/mL
[9]; 1 h
  concentration in plasma: 1090 ng/mL
[9]; 2 h
  concentration in plasma: 437 ng/mL
[9]; 4 h
  concentration in plasma: 112 ng/mL
[9]; 8 h
  concentration in plasma: 31.9 ng/mL
[9]; 24 h
  concentration in plasma: 0.833 ng/mL
[10]; 0.25 h
  concentration in plasma: 1400 ng/mL
[10]; 0.5 h
  concentration in plasma: 1190 ng/mL
[10]; 1 h
  concentration in plasma: 1270 ng/mL
[10]; 2 h
  concentration in plasma: 331 ng/mL
[10]; 4 h
  concentration in plasma: 154 ng/mL
[10]; 8 h
  concentration in plasma: 65.6 ng/mL
[10]; 24 h
  concentration in plasma: 1.06 ng/mL
[7]; 0.25 h, dosed: Pyrithiobac sodium, 1.037 mg/kg, oral
  concentration in plasma: 1080 ng/mL
[7]; 0.5 h, dosed: Pyrithiobac sodium, 1.037 mg/kg, oral
  concentration in plasma: 1060 ng/mL
[7]; 1 h, dosed: Pyrithiobac sodium, 1.037 mg/kg, oral
  concentration in plasma: 1190 ng/mL
[7]; 2 h, dosed: Pyrithiobac sodium, 1.037 mg/kg, oral
  concentration in plasma: 458 ng/mL
[7]; 4 h, dosed: Pyrithiobac sodium, 1.037 mg/kg, oral
  concentration in plasma: 126 ng/mL
[7]; 8 h, dosed: Pyrithiobac sodium, 1.037 mg/kg, oral
  concentration in plasma: 37 ng/mL
[7]; 24 h, dosed: Pyrithiobac sodium, 1.037 mg/kg, oral
  concentration in plasma: 0.55 ng/mL
[7]; 72 h, dosed: Pyrithiobac sodium, 1.037 mg/kg, oral
  concentration in plasma: 0.206 ng/mL
